# From patent publication US12258583B2, “Embryonic erythroblast-containing cell population and method for producing same, cell culture composition, and compound test method” (SUMITOMO CHEMICAL COMPANY, LIMITED, priority 2018, dated 2025)
# Tests used:
# [1] = tested on: embryonic erythroblast-containing cell population produced from human iPS cells; assay: Compound test using embryonic erythroblast-containing cell population produced from human iPS cells (heme, PPIX by LC-MS, viable cell count, viability); format: cell-based; conditions: DHA 0.5 or 1 μM, SA 10 or 30 μM, Day 18 (Day 8 after start of step (C)); for viable cell count: FIG. 12C; for viability of cells: FIG. 12D
# Protocol: The procedure illustrated in FIG. 11 was used to conduct a compound test using an embryonic erythroblast-containing cell population produced from human iPS cells. Differentiation of human iPS cells was induced by substantially the same procedure as in Example 1 to produce an embryonic erythroblast-containing cell population at Day 10 after the start of suspension culture (step (A)) (Step (A) and Step (B)). The cells were centrifuged for 5 min at 1000 rpm in a centrifuge (CF8DL; manufactured by Koki Holdings Co., Ltd.) to remove the supernatant. Next, STEMdiff+B medium was added to the precipitate. Subsequently, the cells were suspended and seeded at 2×10^5 cells in 1.5 mL of medium per well of a […] 6-well plate (manufactured by Corning, Inc.). Then, suspension culture was started (step (C) was started). To the medium at that time was added, as a test compound, dihydroartemisinin (hereinafter, referred to as “DHA”) (at a final concentration of 0.5 μM or 1 μM) or succinylacetone (hereinafter, referred to as “SA”) (at a final concentration of 10 μM or 30 μM). As a solvent control, DMSO was added.
# At Day 18 (Day 8 after the start of step (C)) after the start of suspension culture (step (A)), the resulting cell population-containing medium was collected from the 6-well plate. Next, 0.4×10^5 cells to 1×10^5 cells were pipetted into an Eppendorf tube, and centrifuged for 3 min at 7500 rpm in a centrifuge (centrifuge 5424; manufactured by Eppendorf, Inc.) to remove the supernatant and give a cell pellet. The concentration of heme or protoporphyrin IX (hereinafter, referred to as “PPIX”) included in this cell pellet was quantified using liquid chromatography-mass spectrometry (LC-MS) (step (D)). A change in the concentration of heme or PPIX by addition of a test compound was examined to be able to evaluate how the test compound affected the heme biosynthesis pathway. In addition, the number of cells collected after the culture was counted to determine viability.
# The concentration of heme or PPIX was represented in weight per 10^6 cells (ng/10^6 cells). DHA or SA, which is known to inhibit heme synthesis, caused a decrease in the heme concentration at Day 18 (Day 8 after the start of step (C)) after the start of suspension culture (step (A)) when compared to a solvent control (FIG. 12A). […] A hypothesis that DHA can induce anemia by inhibiting the most downstream ferrochelatase has been proposed (Clark et al. (2018) Birth Defects Research 110: 553-578). […] In addition, DHA or SA decreased the viable cell count and viability of cells included in the cell population (FIGS. 12C and D). In Example 1, the cell population included embryonic erythroblasts at a high percentage.
# [2] = molecular target: T1, aminolevulinic acid dehydrogenase (Homo sapiens, UniProt P13716); conditions: Sassa et al. (1983); cited from earlier work
# T1 sequence (P13716 1-330): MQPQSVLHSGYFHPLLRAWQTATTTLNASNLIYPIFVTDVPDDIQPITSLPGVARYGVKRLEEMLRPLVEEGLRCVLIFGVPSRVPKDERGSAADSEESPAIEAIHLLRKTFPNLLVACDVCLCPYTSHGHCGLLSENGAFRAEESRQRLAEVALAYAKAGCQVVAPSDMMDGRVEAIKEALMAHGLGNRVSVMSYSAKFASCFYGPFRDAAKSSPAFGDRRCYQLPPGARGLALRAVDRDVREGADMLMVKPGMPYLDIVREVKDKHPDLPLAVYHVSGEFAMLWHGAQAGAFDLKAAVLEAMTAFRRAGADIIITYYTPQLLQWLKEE
# REL cells = assay: Differentiation culture of REL cells with inducer, β-globin gene family expression by real-time PCR; format: cell-based, rat; conditions: 1 mM HMBA
# Protocol: (§1) The percentage of expression of the β-globin gene family expressed in cells of the above cell population was checked by real-time PCR. The floating cell population-containing medium at Day 10, 14, or 18 after the start of suspension culture (step (1)) was centrifuged for 5 min at 1000 rpm in a centrifuge (CF8DL; manufactured by Koki Holdings Co., Ltd.) to remove the supernatant. The resulting cells were washed with PBS (manufactured by Thermo Fisher Scientific, Inc.), centrifuged for 3 min at 7500 rpm in a centrifuge (centrifuge 5424; manufactured by Eppendorf, Inc.), and then subjected to total RNA extraction from the cells using an RNeasy Micro Kit (manufactured by QIAGEN, Inc.). The resulting total RNA was subjected to reverse transcription using SuperScript III (manufactured by Thermo Fisher Scientific, Inc.). Subsequently, the resulting cDNA was used as a template to perform real-time PCR by using TaqMan probes (manufactured by Thermo Fisher Scientific, Inc.) and a TaqMan Fast Advanced Master Mix (manufactured by Thermo Fisher Scientific, Inc.) in a 96-well plate under Fast PCR conditions according to the instruction in the package insert. The TaqMan probes used were human probes designated in Table 2.
# (§2) The gene product containing a TaqMan probe target sequence for each member of the β-globin gene family, namely ε-globin, γ-globin, or β-globin, was used to draw a standard curve. Then, the mRNA copy number for each β-globin gene family member expressed was quantified. The value obtained by dividing the copy number for each β-globin gene family member expressed by the total β-globin gene family copy number was shown as the percentage of expression of each β-globin gene family member. The production of embryonic erythroblast-containing cell population and the analysis by real-time PCR were independently triplicated to calculate the average and the standard error.
# REL cells, rat erythroleukemia cells, (obtained from Institute of Molecular Genetics and Genetic Engineering (Prof. Popovic Serbia)) were used as other hematopoietic cells to check a change in expression of ε-globin gene. REL cells were cultured and maintained as follows. RPMI medium (Roswell Park Memorial Institute 1640; manufactured by Thermo Fisher Scientific, Inc.) containing […] FBS (manufactured by Corning, Inc.) and 1% penicillin-streptomycin (manufactured by Sigma-Aldrich Co. LLC) (hereinafter, referred to as “REL medium”) was used, and the cells were subjected to suspension culture on a low-adherent 6-cm dish (manufactured by Sumitomo Bakelite Co., Ltd.). The floating cell-containing medium was collected once every 2 days, and centrifuged for 5 min at 1000 rpm in a centrifuge (SCT5BA; manufactured by Koki Holdings Co., Ltd.) to remove the supernatant. The REL cells were suspended in 5 mL of REL medium and seeded at 5×10^5 cells per dish, and cultured under conditions at 37° C. and 5% CO2.
# An inducer (hexamethylene bisacetamide: HMBA) was added to REL cells to check a change in expression of ε-globin over time. For differentiation culture of REL cells, the medium used was REL medium containing HMBA (at a final concentration of 1 mM; manufactured by Sigma-Aldrich Co. LLC.). The REL cells were suspended in 5 mL of the above medium and seeded at 5×10^5 cells per low-adherent 6-cm dish (manufactured by Sumitomo Bakelite Co., Ltd.), and then cultured under conditions at 37° C. and 5% CO2. The floating cell-containing medium was collected at Day 0, 2, 4, or 8 after the start of differentiation culture, and centrifuged for 5 min at 1000 rpm in a centrifuge (SCT5BA; manufactured by Koki Holdings Co., Ltd.) to remove the supernatant.
# Like the evaluation protocol by real-time PCR in Example 1, the percentage of expression of each β-globin gene family member expressed in cells was determined by real-time PCR. […] Almost all of the β-globin gene family were an adult erythroblast marker β-globin gene under any of the conditions.
# K562 cells [3] = assay: Differentiation culture of K562 cells with inducer, β-globin gene family expression by real-time PCR; format: cell-based, human; conditions: 1 mM sodium butyrate
# Protocol: as §1, §2
# Human chronic myeloid leukemia-derived cell line K562 cells (obtained from Health Science Research Resources Bank) were used as other hematopoietic cells to check expression of ε-globin. K562 cells were cultured and maintained as follows. RPMI medium (Roswell Park Memorial Institute 1640; manufactured by Thermo Fisher Scientific, Inc.) containing 10% FBS (manufactured by Corning, Inc.) and 1% penicillin-streptomycin (manufactured by Sigma-Aldrich Co. LLC) (hereinafter, referred to as “K562 medium”) was used, and the cells were subjected to suspension culture on a low-adherent 6-cm dish (manufactured by Sumitomo Bakelite Co., Ltd.). The floating cell-containing medium was collected once every 7 days, and centrifuged for 5 min at 1000 rpm in a centrifuge (SCTSBA; manufactured by Koki Holdings Co., Ltd.) to remove the supernatant. The K562 cells were suspended in 5 mL of K562 medium and seeded at 5×10^5 cells per dish, and cultured under conditions at 37° C. and 5% CO2.
# It has been known that addition of an inducer (sodium butyrate) causes an increase in the expression of εs-globin in K562 cells. Thus, a change in expression of ε-globin after addition of sodium butyrate was checked over time. For differentiation culture of K562 cells, K562 medium containing 1 mM sodium butyrate (manufactured by Sigma-Aldrich Co. LLC) was used. The cells were suspended in 5 mL of the above medium and seeded at 5×10^5 cells per low-adherent 6-cm dish, and cultured under conditions at 37° C. and 5% CO2. The floating cell-containing medium was collected at Day 0, 2, 4, or 8 after the start of differentiation culture, and centrifuged for 5 min at 1000 rpm in a centrifuge (SCTSBA; manufactured by Koki Holdings Co., Ltd.) to remove the supernatant.
# Like the evaluation protocol by real-time PCR in Example 1, the percentage of expression of each β-globin gene family member expressed in cells was determined by real-time PCR. […] About 30% or less of the β-globin gene family were an embryonic erythroblast marker ε-globin gene under any of the conditions.
# K562 cells [4] = conditions: known from the art; cited from earlier work
# [5] = Day 2 of differentiation culture
# [6] = Day 4 of differentiation culture
# [7] = Day 8 of differentiation culture
smiles,measurement,setting,value
"C[C@H]1[C@@H](O)O[C@@H]2O[C@@]3(C)CC[C@H]4[C@H](C)CC[C@@H]1[C@@]24OO3 [DHA, dihydroartemisinin]",viable cell count,[1],decreased
same,viability of cells,[1],decreased
"CC(=O)CC(=O)CCC(=O)O [SA, succinylacetone]","inhibition of aminolevulinic acid dehydrogenase, upstream in the heme biosynthesis pathway",[2],inhibits
same,viable cell count,[1],decreased
same,viability of cells,[1],decreased
same,heme concentration compared to a solvent control,"[1]; LC-MS, ng/10^6 cells, FIG. 12A",decrease
same,PPIX (protoporphyrin IX) concentration,"[1]; LC-MS, ng/10^6 cells, FIG. 12B",did not largely affect
"CC(=O)NCCCCCCNC(C)=O [HMBA, hexamethylene bisacetamide]",Relative expression level of β-Globin (Hbb) in the β-globin gene family,REL cells; [5],100 ± 0.0%
same,Relative expression level of γ-Globin (Hbg1) in the β-globin gene family,REL cells; [5],0 ± 0.0%
same,Relative expression level of ε-Globin (Hbe1) in the β-globin gene family,REL cells; [5],0 ± 0.0%
same,Relative expression level of β-Globin (Hbb) in the β-globin gene family,REL cells; [6],100 ± 0.0%
same,Relative expression level of γ-Globin (Hbg1) in the β-globin gene family,REL cells; [6],0 ± 0.0%
same,Relative expression level of ε-Globin (Hbe1) in the β-globin gene family,REL cells; [6],0 ± 0.0%
same,Relative expression level of β-Globin (Hbb) in the β-globin gene family,REL cells; [7],99 ± 0.2%
same,Relative expression level of γ-Globin (Hbg1) in the β-globin gene family,REL cells; [7],1 ± 0.1%
same,Relative expression level of ε-Globin (Hbe1) in the β-globin gene family,REL cells; [7],0 ± 0.0%
CCCC(=O)[O-].[Na+] [sodium butyrate],Relative expression level of β-Globin (HBB) in the β-globin gene family,K562 cells [3]; [5],0 ± 0.0%
same,Relative expression level of γ-Globin (HBG2/1) in the β-globin gene family,K562 cells [3]; [5],75 ± 1.6%
same,Relative expression level of ε-Globin (HBE1) in the β-globin gene family,K562 cells [3]; [5],25 ± 1.6%
same,Relative expression level of β-Globin (HBB) in the β-globin gene family,K562 cells [3]; [6],0 ± 0.0%
same,Relative expression level of γ-Globin (HBG2/1) in the β-globin gene family,K562 cells [3]; [6],73 ± 1.3%
same,Relative expression level of ε-Globin (HBE1) in the β-globin gene family,K562 cells [3]; [6],27 ± 1.3%
same,Relative expression level of β-Globin (HBB) in the β-globin gene family,K562 cells [3]; [7],0 ± 0.0%
same,Relative expression level of γ-Globin (HBG2/1) in the β-globin gene family,K562 cells [3]; [7],70 ± 1.9%
same,Relative expression level of ε-Globin (HBE1) in the β-globin gene family,K562 cells [3]; [7],30 ± 1.9%
same,expression of ε-globin in K562 cells after addition of inducer,K562 cells [4],increase
